Test results from patent publication US20200061173A1, “IMMUNOGENIC COMPOSITION COMPRISING SURVIVIN PEPTIDES” (Vaxeal Research SAS, priority 2016, published 2020).

What was measured:
[1] = tested on: Survivin peptides-specific T cell responses; assay: T cell immunogenicity in mouse strains, ex vivo IFN-γ ELISpot on total splenocytes; settings: splenocytes re-stimulated with the individual SVX-1 peptides
Experimental: T cell immunogenicity of the mixture and individual Survivin derived polypeptides (S1, S2 and S3) was evaluated in different mouse strains (C57BL/6 (H2^b); BALB/c (H2^d) and CBA (H2^k)) and in the pre-clinical mouse model HLA-DRB1*0101, HLA-A*0201 (with α3 from D^b), H-2^/ transgenic mice (Tg HLA-A2/DR1). The objective of this study was to select the optimal genetic background to further investigate the immunogenicity and therapeutic efficacy of the SVX-1 vaccine composes of an equimolar mixture of these 3 Survivin LSPs.
Six (6) to ten (10) weeks old female C57BL/6, BALB/c, and CBA mice were obtained from Charles River (Saint-Germain-Nuelles, France).
The transgenic HLA-A2/DR1 mice, previously described (Pajot et al. 2004), were bred and maintained under specific pathogen-free conditions in an animal facility. […] One week after the last immunization (D21), spleen cells of immunized mice were harvested, and the induction of Survivin peptides-specific T cell responses was detected ex vivo using IFN-γ ELISpot assay on the total splenocytes (2×10^5 cells) re-stimulated overnight with the mix of peptides or the individual peptides. […]

PBMC T cells = assay: Spontaneous T-cell responses against SVX-1 peptides in blood, IFN-γ ELISpot; assay type: cell-based, human; settings: among the 6 positive patients
Experimental: Peripheral blood from 7 lung cancer patients was used to monitor the presence of SVX-1 peptides specific T cells. The cancer patients were recruited at the Hôpital Europeen Georges Pompidou (Paris, France). This study was conducted in accordance with French laws and after approval by the local ethics committee. Blood cells were also collected from 3 anonymous healthy donors at the Etablissement Français du Sang (EFS, Rungis, France) as buffy-coat preparations after informed consent and following EFS guidelines. The blood from the healthy donors served as negative controls.
PBMC were isolated by density centrifugation on Ficoll-Hyperpaque gradients (Sigma-Aldrich). PBMC were cultured for 6 days at 2×10^6 cells/ml in 2 ml per well with complete RPMI medium supplemented with 10% FCS. In each well, a pool of SVX-1 peptides was added at a concentration of 10 μg/ml. On day 2 after the beginning of the culture, IL-2 (Chiron) was added at 20 IU/ml in standard conditions. After 6 days of culture, ELISpot assays were performed using PHA-activated cells pulsed with the pool of SVX-1 peptides or the individual peptides (S1, S2 or S3) as antigen presenting cells (APCs). […]
Spots were counted using an automated stereomicro-scope (Zeiss). The number of specific T cells expressed as spot-forming cells/10^5 cells was calculated after subtracting negative control values (background). […]

Sequence: HRISTFKNWPFLEGCACT (alpha-isoform survivin S1 positions 17-34) [18 amino acid peptide consisting of wild type Survivin amino acids 17-34]
- T cell responses against individual peptides in CBA mice [1]: mainly directed against the S1 peptides
- Spontaneous T cell responses against individual peptides in lung cancer patients (PBMC T cells): detected
